Read-outs that look alike come from different tables or passages of the source.

In assay [1] the target is human HDAC3/SMRT heterodimer (Homo sapiens (Human), UniProt O15379). As to the kind of experiment: biochemical.
Assay [2] addresses HDAC6 (Homo sapiens (Human), UniProt Q9UBN7). As to the kind of experiment: biochemical.
For assay [3], the target named is human HDAC8 (Homo sapiens (Human), UniProt Q9BY41). Nature of the assay: HDAC8 inhibition assay (modified FLUOR DE LYS, 384-well). To be noted: […] nM enzyme, 200 μM substrate BML-KI178, 3 h pre-incubation; read-out: HDAC8 IC50. The format is biochemical.
Sequence of human HDAC8 (Q9BY41 whole entry): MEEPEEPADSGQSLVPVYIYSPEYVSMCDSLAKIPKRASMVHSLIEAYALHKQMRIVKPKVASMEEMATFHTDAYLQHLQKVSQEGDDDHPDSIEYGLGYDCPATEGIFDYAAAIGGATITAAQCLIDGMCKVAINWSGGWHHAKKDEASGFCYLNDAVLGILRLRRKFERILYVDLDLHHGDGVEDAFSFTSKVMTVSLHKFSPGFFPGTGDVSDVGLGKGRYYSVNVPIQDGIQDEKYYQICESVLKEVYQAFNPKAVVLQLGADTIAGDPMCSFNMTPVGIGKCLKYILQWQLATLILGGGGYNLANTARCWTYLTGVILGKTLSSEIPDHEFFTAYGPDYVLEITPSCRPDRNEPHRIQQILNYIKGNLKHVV
For assay [4], the system named is KARN cells (Jurkat 2C4). As to the kind of experiment: cells. To be noted: Homo sapiens.
The target of assay [5] is human HDAC1 (Homo sapiens (Human), UniProt Q13547). As to the kind of experiment: biochemical.
Sequence of human HDAC1 (Q13547 whole entry): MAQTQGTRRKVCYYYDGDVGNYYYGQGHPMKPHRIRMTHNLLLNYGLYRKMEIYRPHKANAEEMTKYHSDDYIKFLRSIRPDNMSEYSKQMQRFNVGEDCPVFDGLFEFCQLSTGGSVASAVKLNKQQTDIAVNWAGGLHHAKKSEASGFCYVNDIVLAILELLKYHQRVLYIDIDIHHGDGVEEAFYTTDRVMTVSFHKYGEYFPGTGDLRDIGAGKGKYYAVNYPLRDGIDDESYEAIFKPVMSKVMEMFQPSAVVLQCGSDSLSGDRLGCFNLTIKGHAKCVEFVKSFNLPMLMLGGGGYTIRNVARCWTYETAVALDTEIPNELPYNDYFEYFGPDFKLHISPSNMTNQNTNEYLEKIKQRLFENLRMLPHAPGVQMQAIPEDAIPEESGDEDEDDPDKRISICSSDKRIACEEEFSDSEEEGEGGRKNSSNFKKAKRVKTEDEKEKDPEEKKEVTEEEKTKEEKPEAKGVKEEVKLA
Assay [6] addresses human HDAC2 (Homo sapiens (Human), UniProt Q92769). As to the kind of experiment: HDAC2 inhibition assay (modified FLUOR DE LYS, 384-well). In kind it is biochemical. Particulars: […] nM enzyme, 40 μM substrate BML-KI104, 3 h pre-incubation; read-out: HDAC2 IC50.
Setting [7] is: read-out: Karn EC50 nM 0.1% NHS.
Setting [8] is: read-out: Karn EC50 nM 0.1% NHS, 0.1% normal human serum, luciferase induction, 2 μM SAHA = 100%.
The mark [9] stands for this setting: read-out: Karn EC50 nM 5% NHS, 5% normal human serum, luciferase induction, 2 μM SAHA = 100%.

Sequence of human HDAC3/SMRT heterodimer (O15379 whole entry): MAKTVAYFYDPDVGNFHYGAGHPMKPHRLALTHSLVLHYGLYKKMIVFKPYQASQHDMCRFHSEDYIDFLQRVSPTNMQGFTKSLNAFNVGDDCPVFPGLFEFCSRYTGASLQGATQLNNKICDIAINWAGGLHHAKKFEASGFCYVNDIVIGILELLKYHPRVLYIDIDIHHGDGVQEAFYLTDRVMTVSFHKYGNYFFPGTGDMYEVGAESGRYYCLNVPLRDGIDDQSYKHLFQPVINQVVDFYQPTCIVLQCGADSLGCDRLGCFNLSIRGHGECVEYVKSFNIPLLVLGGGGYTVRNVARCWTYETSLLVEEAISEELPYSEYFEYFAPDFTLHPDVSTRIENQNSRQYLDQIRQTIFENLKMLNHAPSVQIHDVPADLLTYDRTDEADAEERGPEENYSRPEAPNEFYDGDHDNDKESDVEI
Sequence of human HDAC3/SMRT heterodimer (Q9Y618 1-899 partner): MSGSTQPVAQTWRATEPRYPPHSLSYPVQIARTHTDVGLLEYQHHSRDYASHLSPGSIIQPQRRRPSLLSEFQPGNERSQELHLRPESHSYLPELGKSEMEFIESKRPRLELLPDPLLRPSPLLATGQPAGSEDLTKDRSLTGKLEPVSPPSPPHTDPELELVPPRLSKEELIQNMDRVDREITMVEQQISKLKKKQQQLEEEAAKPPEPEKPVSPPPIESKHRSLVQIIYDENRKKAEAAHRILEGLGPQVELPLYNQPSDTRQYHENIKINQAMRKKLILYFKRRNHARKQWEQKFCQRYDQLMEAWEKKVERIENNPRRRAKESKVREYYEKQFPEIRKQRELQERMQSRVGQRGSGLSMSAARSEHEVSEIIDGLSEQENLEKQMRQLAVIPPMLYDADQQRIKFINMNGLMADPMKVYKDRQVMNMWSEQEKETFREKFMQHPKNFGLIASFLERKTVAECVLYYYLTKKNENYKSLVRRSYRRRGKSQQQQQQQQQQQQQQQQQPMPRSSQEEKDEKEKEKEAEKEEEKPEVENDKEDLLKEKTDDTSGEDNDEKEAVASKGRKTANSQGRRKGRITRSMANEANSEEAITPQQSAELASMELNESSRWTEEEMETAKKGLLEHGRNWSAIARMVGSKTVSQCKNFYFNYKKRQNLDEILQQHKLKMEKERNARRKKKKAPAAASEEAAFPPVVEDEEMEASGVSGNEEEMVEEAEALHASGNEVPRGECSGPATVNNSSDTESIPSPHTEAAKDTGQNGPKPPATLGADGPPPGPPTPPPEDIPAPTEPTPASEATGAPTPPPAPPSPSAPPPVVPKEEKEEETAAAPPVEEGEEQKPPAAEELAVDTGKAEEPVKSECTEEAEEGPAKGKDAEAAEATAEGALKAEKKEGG
Sequence of human HDAC2 (Q92769 whole entry): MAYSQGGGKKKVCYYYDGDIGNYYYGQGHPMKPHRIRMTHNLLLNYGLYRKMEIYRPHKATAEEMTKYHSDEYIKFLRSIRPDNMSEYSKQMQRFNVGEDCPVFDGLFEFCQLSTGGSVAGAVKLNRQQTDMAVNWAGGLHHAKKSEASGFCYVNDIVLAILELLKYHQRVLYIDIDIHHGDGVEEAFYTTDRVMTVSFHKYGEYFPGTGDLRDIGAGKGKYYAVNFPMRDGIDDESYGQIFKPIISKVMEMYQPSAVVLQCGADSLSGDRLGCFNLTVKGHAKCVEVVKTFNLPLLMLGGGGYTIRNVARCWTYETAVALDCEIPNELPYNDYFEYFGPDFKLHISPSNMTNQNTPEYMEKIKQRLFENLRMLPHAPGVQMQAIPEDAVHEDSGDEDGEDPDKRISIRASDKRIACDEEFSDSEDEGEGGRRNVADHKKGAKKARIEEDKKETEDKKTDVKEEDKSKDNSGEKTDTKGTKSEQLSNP
Sequence of HDAC6 (Q9UBN7 whole entry): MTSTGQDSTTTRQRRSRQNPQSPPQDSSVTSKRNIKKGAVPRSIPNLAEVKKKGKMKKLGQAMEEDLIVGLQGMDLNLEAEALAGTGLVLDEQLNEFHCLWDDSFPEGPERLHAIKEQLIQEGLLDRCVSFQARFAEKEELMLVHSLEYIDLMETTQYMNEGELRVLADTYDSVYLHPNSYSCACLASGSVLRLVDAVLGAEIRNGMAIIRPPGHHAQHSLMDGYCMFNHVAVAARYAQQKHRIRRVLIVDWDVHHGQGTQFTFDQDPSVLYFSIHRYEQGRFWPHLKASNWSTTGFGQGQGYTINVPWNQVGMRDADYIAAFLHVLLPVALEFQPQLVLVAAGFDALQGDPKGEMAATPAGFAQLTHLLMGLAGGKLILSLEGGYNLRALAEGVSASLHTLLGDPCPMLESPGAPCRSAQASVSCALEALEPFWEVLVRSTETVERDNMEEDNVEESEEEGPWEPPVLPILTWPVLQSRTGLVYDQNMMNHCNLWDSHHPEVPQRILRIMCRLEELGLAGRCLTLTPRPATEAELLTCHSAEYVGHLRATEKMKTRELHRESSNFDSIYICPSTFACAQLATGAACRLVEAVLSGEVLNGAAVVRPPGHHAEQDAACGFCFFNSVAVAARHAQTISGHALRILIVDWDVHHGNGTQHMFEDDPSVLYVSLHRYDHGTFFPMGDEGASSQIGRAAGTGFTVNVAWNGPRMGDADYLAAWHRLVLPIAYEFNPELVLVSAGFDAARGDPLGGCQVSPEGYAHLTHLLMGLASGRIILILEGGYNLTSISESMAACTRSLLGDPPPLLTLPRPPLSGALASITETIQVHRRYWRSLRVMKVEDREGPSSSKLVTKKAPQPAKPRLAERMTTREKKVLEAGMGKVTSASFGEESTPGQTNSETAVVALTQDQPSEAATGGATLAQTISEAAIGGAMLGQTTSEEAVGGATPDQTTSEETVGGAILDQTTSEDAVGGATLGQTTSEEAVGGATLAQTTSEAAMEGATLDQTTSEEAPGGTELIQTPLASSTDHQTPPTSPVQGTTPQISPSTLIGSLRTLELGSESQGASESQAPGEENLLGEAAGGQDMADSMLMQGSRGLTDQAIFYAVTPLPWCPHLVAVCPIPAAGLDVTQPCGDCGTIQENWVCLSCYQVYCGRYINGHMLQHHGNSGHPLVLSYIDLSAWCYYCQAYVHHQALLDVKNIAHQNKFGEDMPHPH

As for `CC(=O)N[C@@H](CCCCCC(=O)c1ncco1)c1ncc(-c2ccc3nc(C)ccc3c2)[nH]1` [Example 87, (S)-N-(1-(5-(2-methylquinolin-6-yl)-1H-imidazol-2-yl)-7-(oxazol-2-yl)-7-oxoheptyl)acetamide], the IC50 was 1.8 nM in assay [1]; 8600 nM in assay [2]; 130 nM in assay [3]; 0.69 nM in assay [5]; 5.7 nM in assay [6]. For the same compound, the figures for the EC50 in assay [4] (setting [7]) and in assay [4] (read-out: Karn EC50 nM 5% NHS) were 43 nM and 60 nM, respectively.
`O=C(CCCCC[C@H](NC(=O)c1cncs1)c1[nH]c(-c2ccc(F)cc2)nc1Cl)c1ncco1` [Example 88, (S)-N-(1-(4-chloro-2-(4-fluorophenyl)-1H-imidazol-5-yl)-7-(oxazol-2-yl)-7-oxoheptyl)thiazole-5-carboxamide]: the concentration for half-maximal inhibition (IC50) was 0.37 nM in assay [1]; at least 45000 nM in assay [2]; 61 nM in assay [3]; 0.22 nM in assay [5]; 1.4 nM in assay [6]. Further, the EC50 in assay [4] (setting [8]) was determined as 25 nM; in assay [4] (setting [9]) it was 380 nM.
In the case of `COc1cc2nc(C)ccc2cc1-c1cnc([C@H](CCCCCC(=O)c2ncco2)NC(=O)CN(C)C)[nH]1` [Example 89, (S)-2-(dimethylamino)-N-(1-(5-(7-methoxy-2-methylquinolin-6-yl)-1H-imidazol-2-yl)-7-(oxazol-2-yl)-7-oxoheptyl)acetamide], the half-inhibitory concentration (IC50) in assay [1] amounted to 1.5 nM; in assay [2] it was 1700 nM; in assay [3], 69 nM; in assay [5], 0.8 nM; in assay [6], 3.4 nM. Also, the EC50 in assay [4] (setting [7]) is 13 nM; in assay [4] (read-out: Karn EC50 nM 5% NHS) it was 32 nM.
With `CCn1ccc2cc(-c3cnc([C@H](CCCCCC(=O)c4ccon4)NC(=O)CN(C)C)[nH]3)c(OC)cc2c1=O` [Example 94, (S)-2-(dimethylamino)-N-(1-(5-(2-ethyl-7-methoxy-1-oxo-1,2-dihydroisoquinolin-6-yl)-1H-imidazol-2-yl)-7-(isoxazol-3-yl)-7-oxoheptyl)acetamide], the IC50 in assay [1] is 0.24 nM; in assay [2], 20000 nM; in assay [3] it was 5.2 nM; in assay [5] it was 0.26 nM; in assay [6] it was 1 nM. Further, the EC50 in assay [4] (setting [8]) stood at 3.8 nM; in assay [4] (setting [9]), 8.8 nM.
`CN(C)CC(=O)N[C@@H](CCCCCC(=O)c1ncco1)c1ncc(-c2ccc3nccnc3c2)[nH]1` [Example 95, (S)-2-(dimethylamino)-N-(7-(oxazol-2-yl)-7-oxo-1-(5-(quinoxalin-6-yl)-1H-imidazol-2-yl)heptyl)acetamide]: the half-maximal inhibitory concentration (IC50) worked out at 2.2 nM in assay [1]; 700 nM in assay [2]; 68 nM in assay [3]; 1.3 nM in assay [5]; 8.6 nM in assay [6]. In addition, the EC50 in assay [4] (setting [8]) amounted to 63 nM; in assay [4] (setting [9]), 84 nM.
With `CCN1CCC2(CC1)C[C@@H]2C(=O)N[C@@H](CCCCCC(=O)c1ncco1)c1[nH]c(-c2ccc(F)cc2)nc1Cl` [Example 97, (S)-N-((S)-1-(4-chloro-2-(4-fluorophenyl)-1H-imidazol-5-yl)-7-(oxazol-2-yl)-7-oxoheptyl)-6-ethyl-6-azaspiro[2.5]octane-1-carboxamide], the IC50 in assay [1] came to 0.066 nM; in assay [2] it was 19000 nM; in assay [3], 210 nM; in assay [5] it was 0.049 nM; in assay [6], 0.38 nM. Also, the figures for the half-maximal effective concentration (EC50) in assay [4] (setting [8]) and in assay [4] (setting [9]) were 4.1 nM and 11 nM, respectively.
In the case of `COc1cc2nc(C)ccc2cc1-c1cnc([C@H](CCCCCC(=O)c2ncco2)NC(=O)C2CCN(C)CC2)[nH]1` [Example 98, (S)-N-(1-(5-(7-methoxy-2-methylquinolin-6-yl)-1H-imidazol-2-yl)-7-(oxazol-2-yl)-7-oxoheptyl)-1-methylpiperidine-4-carboxamide], the IC50 worked out at 0.64 nM in assay [1]; 1000 nM in assay [2]; 25 nM in assay [3]; 0.34 nM in assay [5]; 3.6 nM in assay [6]. Besides, the 50% effective concentration (EC50) in assay [4] (setting [7]) was determined as 58 nM; in assay [4] (read-out: Karn EC50 nM 5% NHS), 170 nM.
For the compound `COc1cc2nc(C)ccc2cc1-c1cnc([C@H](CCCCCC(=O)c2ncco2)NC(=O)C2CN(C)C2)[nH]1` [Example 99, (S)-N-(1-(5-(7-methoxy-2-methylquinolin-6-yl)-1H-imidazol-2-yl)-7-(oxazol-2-yl)-7-oxoheptyl)-1-methylazetidine-3-carboxamide], the IC50 in assay [1] is 0.47 nM; in assay [2] it was 1300 nM; in assay [3] it was 56 nM; in assay [5], 0.3 nM; in assay [6], 2.6 nM. The 50% effective concentration (EC50) in assay [4] (setting [7]) amounted to 77 nM; in assay [4] (read-out: Karn EC50 nM 5% NHS) it was 73 nM.
In the case of `COc1cc2nc(C)ccc2cc1-c1cnc([C@H](CCCCCC(=O)c2ncco2)NC(=O)C2CN(C)C2)o1` [Example 100, (S)-N-(1-(5-(7-methoxy-2-methylquinolin-6-yl)oxazol-2-yl)-7-(oxazol-2-yl)-7-oxoheptyl)-1-methylazetidine-3-carboxamide], the 50% inhibitory concentration (IC50) in assay [1] was 0.28 nM; in assay [2], 620 nM; in assay [3] it was 130 nM; in assay [5] it was 0.45 nM; in assay [6] it was 1.3 nM. The values for the EC50 in assay [4] (setting [7]) and in assay [4] (read-out: Karn EC50 nM 5% NHS) were 19 nM and 21 nM, respectively.
As for `CN1CC(C(=O)N[C@@H](CCCCCC(=O)c2ncco2)c2[nH]c(-c3ccc(F)cc3)nc2Cl)C1` [Example 101, (S)-N-(1-(4-chloro-2-(4-fluorophenyl)-1H-imidazol-5-yl)-7-(oxazol-2-yl)-7-oxoheptyl)-1-methylazetidine-3-carboxamide], the IC50 in assay [1] was 1.5 nM; in assay [2], at least 45000 nM; in assay [3], 340 nM; in assay [5], 1.5 nM; in assay [6], 1.5 nM. The figures for the EC50 in assay [4] (setting [8]) and in assay [4] (setting [9]) were 27 nM and 22 nM, respectively.
Take `CN1CC(C(=O)N[C@@H](CCCCCC(=O)c2ccon2)c2[nH]c(-c3ccccc3F)nc2Cl)C1` [Example 105, (S)-N-(1-(4-chloro-2-(2-fluorophenyl)-1H-imidazol-5-yl)-7-(isoxazol-3-yl)-7-oxoheptyl)-1-methylazetidine-3-carboxamide]: the IC50 was 0.046 nM in assay [1]; 8500 nM in assay [2]; 29 nM in assay [3]; 0.12 nM in assay [5]; 0.37 nM in assay [6]. Also, the EC50 was 2.8 nM in assay [4] (setting [8]) and 3.5 nM in assay [4] (setting [9]).
Consider `COc1cc2nc(C)ccc2cc1-c1cnc([C@H](CCCCCC(=O)c2ccon2)NC(=O)C2CN(C)C2)o1` [Example 108, (S)-N-(7-(isoxazol-3-yl)-1-(5-(7-methoxy-2-methylquinolin-6-yl)oxazol-2-yl)-7-oxoheptyl)-1-methylazetidine-3-carboxamide], for which the IC50 was 0.19 nM in assay [1]; over 900 nM in assay [2]; 5.8 nM in assay [3]; 0.18 nM in assay [5]; 0.35 nM in assay [6]. For the same compound, the 50% effective concentration (EC50) in assay [4] (setting [8]) was found to be 6.4 nM; in assay [4] (setting [9]), 6.1 nM.

Usually IC50 stands for the concentration that gives 50% inhibition. Usually EC50 stands for the concentration needed to bring the measured effect to its halfway point.

Values taken from patent publication US12331044B2, “Inhibitors of histone deacetylase useful for the treatment or prevention of HIV infection” (Merck Sharp & Dohme LLC, priority 2018, dated 2025).
